From patent US11234979B2, “Heteroaryl compounds as muscarinic M1 receptor positive allosteric modulators” (SUVEN LIFE SCIENCES LIMITED, priority 2017, dated 2022)

What follows are molecules tested against T1, recombinant human Muscarinic M1 receptor (Homo sapiens, UniProt P11229) (assay: Allosteric potency EC50 for Muscarinic M1 receptor, CHO pCRE-Luc reporter assay with EC20 of acetylcholine). Conditions: CHO cells, in presence of EC20 of acetylcholine, 4 hours.
T1 construct: expressed in transfected cells
T1 sequence (P11229 1-460): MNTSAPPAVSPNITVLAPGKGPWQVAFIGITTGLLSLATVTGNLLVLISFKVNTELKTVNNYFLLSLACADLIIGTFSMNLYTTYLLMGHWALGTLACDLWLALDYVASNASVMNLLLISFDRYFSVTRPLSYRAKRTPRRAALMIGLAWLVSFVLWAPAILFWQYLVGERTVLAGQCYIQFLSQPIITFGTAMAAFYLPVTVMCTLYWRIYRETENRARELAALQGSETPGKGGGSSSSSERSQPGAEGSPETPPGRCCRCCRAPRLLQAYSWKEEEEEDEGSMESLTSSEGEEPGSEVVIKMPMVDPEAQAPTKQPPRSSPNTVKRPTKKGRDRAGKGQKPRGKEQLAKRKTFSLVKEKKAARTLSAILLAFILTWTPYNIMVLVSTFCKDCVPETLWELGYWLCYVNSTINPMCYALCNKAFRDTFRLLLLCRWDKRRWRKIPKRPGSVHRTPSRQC
Format: cell-based
Method: Determination of Allosteric Potency EC50 Values for Muscarinic M1 Receptor:
A stable CHO cell line expressing recombinant human Muscarinic M1 receptor and pCRE-Luc reporter system was used for cell-based assay. The assay offers a non-radioactive based approach to determine binding of a compound to GPCRs. In this specific assay, the level of intracellular cyclic AMP which is modulated by activation or inhibition of the receptor is measured. The recombinant cells harbor luciferase reporter gene under the control of cAMP response element.
The above cells were grown in 96 well clear bottom white plates in Hams F12 medium containing 10% fetal bovine serum (FBS). Prior to the addition of compounds or standard agonist, cells were serum starved overnight. Increasing concentrations of test compounds were added along with EC20 of acetylcholine in OptiMEM medium to the cells. The incubation was continued at 37° C. in CO2 incubator for 4 hours. Medium was removed and cells were washed with phosphate buffered saline. The cells were lysed and luciferase activity was measured in a Luminometer. Luminescence counts in each concentrations of test item were normalized to the acetylcholine induced maximum response and the data was analyzed using Graphpad software. EC50 values of the compounds were defined as the concentration required in stimulating the luciferase activity by 50% in presence of EC20 of acetylcholine.

SMILES | EC50 [nM]
O=C(N[C@H]1CCCC[C@@H]1O)c1cc(Cc2ccc(Br)cc2)c2cccnn12 [Example 1, N-(cis-1S,2S-2-Hydroxycyclohexyl)-5-(4-bromobenzyl)-pyrrolo[1,2-b]pyridazine-7-carboxamide] | 1470
O=C(N[C@H]1CCCC[C@@H]1O)c1cc(Cc2cc(Br)ccc2F)c2cccnn12 [Example 2, N-(cis-1S,2S-2-Hydroxycyclohexyl)-5-(5-bromo-2-fluorobenzyl)-pyrrolo[1,2-b]pyridazine-7-carboxamide] | 419
O=C(N[C@H]1CCCC[C@@H]1O)c1cc(Cc2ccc(Br)nc2)c2cccnn12 [Example 5, N-(cis-1S,2S-2-Hydroxycyclohexyl)-5-(2-bromo-pyridin-5-ylmethyl)-pyrrolo[1,2-b]pyridazine-7-carboxamide] | 2130
COc1cccc(Cc2cc(C(=O)N[C@H]3CCCC[C@@H]3O)n3ncccc23)c1 [Example 6, N-(cis-1S,2S-2-Hydroxycyclohexyl)-5-(3-methoxybenzyl)-pyrrolo[1,2-b]pyridazine-7-carboxamide] | 3030
O=C(N[C@H]1CCCC[C@@H]1O)c1cc(Cc2ccc(F)cc2F)c2cccnn12 [Example 7, N-(cis-1S,2S-2-Hydroxycyclohexyl)-5-(2,4-difluorobenzyl)-pyrrolo[1,2-b]pyridazine-7-carboxamide] | 779
O=C(N[C@H]1CCCC[C@@H]1O)c1cc(Cc2ccc(F)cc2)c2cccnn12 [Example 8, N-(cis-1S,2S-2-Hydroxycyclohexyl)-5-(4-fluorobenzyl)-pyrrolo[1,2-b]pyridazine-7-carboxamide] | 863
O=C(N[C@H]1CCCC[C@@H]1O)c1cc(Cc2cccc(F)c2F)c2cccnn12 [Example 9, N-(cis-1S,2S-2-Hydroxycyclohexyl)-5-(2,3-difluorobenzyl)-pyrrolo[1,2-b]pyridazine-7-carboxamide] | 2110
COc1ccc(Cc2cc(C(=O)N[C@H]3CCCC[C@@H]3O)n3ncccc23)cc1F [Example 10, N-(cis-1S,2S-2-Hydroxycyclohexyl)-5-(3-fluoro-4-methoxybenzyl)-pyrrolo[1,2-b]pyridazine-7-carboxamide] | 1220
O=C(N[C@H]1CCCC[C@@H]1O)c1cc(Cc2ccnc(Cl)c2)c2cccnn12 [Example 11, N-(cis-1S,2S-2-Hydroxycyclohexyl)-5-(2-chloro-pyridin-4-ylmethyl)-pyrrolo[1,2-b]pyridazine-7-carboxamide] | 1300
COc1cc(Cc2cc(C(=O)N[C@H]3CCCC[C@@H]3O)n3ncccc23)ccc1F [Example 12, N-(cis-1S,2S-2-Hydroxycyclohexyl)-5-(4-fluoro-3-methoxybenzyl)-pyrrolo[1,2-b]pyridazine-7-carboxamide] | 1340
O=C(N[C@H]1CCCC[C@@H]1O)c1cc(Cc2ccccc2F)c2cccnn12 [Example 13, N-(cis-1S,2S-2-Hydroxycyclohexyl)-5-(2-fluorobenzyl)-pyrrolo[1,2-b]pyridazine-7-carboxamide] | 1760
COc1ccc(Cc2cc(C(=O)N[C@H]3CCCC[C@@H]3O)n3ncccc23)c(F)c1 [Example 14, N-(cis-1S,2S-2-Hydroxycyclohexyl)-5-(2-fluoro-4-methoxybenzyl)-pyrrolo[1,2-b]pyridazine-7-carboxamide] | 1080
O=C(N[C@H]1CCCC[C@@H]1O)c1cc(Cc2ccc(F)c(F)c2)c2cccnn12 [Example 15, N-(cis-1S,2S-2-Hydroxycyclohexyl)-5-(3,4-difluorobenzyl)-pyrrolo[1,2-b]pyridazine-7-carboxamide] | 1510
O=C(N[C@H]1CCCC[C@@H]1O)c1cc(Cc2ccc(Cl)nc2)c2cccnn12 [Example 16, N-(cis-1S,2S-2-Hydroxycyclohexyl)-5-(2-chloro-pyridin-5-ylmethyl)-pyrrolo[1,2-b]pyridazine-7-carboxamide] | 2760
O=C(NC1CCOCC1)c1cc(Cc2ccc(Cl)nc2)c2cccnn12 [Example 17, N-(Tetrahydropyran-4-yl)-5-(2-chloropyridin-5-ylmethyl)-pyrrolo[1,2-b]pyridazine-7-carboxamide] | 10000
